Assay results taken from patent publication US20150218212A1, “FLUORINATED EPOXYKETONE-BASED TETRAPEPTIDE COMPOUNDS AND USES THEREOF AS PROTEASOME INHIBITORS” (FLUORINOV PHARMA INC., priority 2012, published 2015).

Tests used:
Type in all cases: cell-based, human
[1] = tested on: HCT-15; experiment: NCI screening panel, HCT-15 (Colon Cancer)
Experimental: (§1) Representative compounds of Formula I were screened using the National Cancer Institute (NCI) screening panel, which consists of a panel of human tumor cell lines, representing leukemia, melanoma, and cancers of the lung, colon, ovary, breast, prostate and renal system.
(§2) After 24 h, two plates of each cell line are fixed in situ with TCA, to represent a measurement of the cell population for each cell line at the time of drug addition (Tz). Experimental drugs are solubilised in dimethyl sulfoxide at 400-fold the desired final maximum test concentration and stored frozen prior to use. At the time of drug addition, an aliquot of frozen concentrate is thawed and diluted to twice the desired final maximum test concentration with complete medium containing 50 μg/mL gentamicin. Additional four, 10-fold or ½ log serial dilutions are made to provide a total of five drug concentrations plus control. Aliquots of 100 μl of these different drug dilutions are added to the appropriate microtiter wells already containing 100 μl of medium, resulting in the required final drug concentrations.
(§3) Following drug addition, the plates are incubated for an additional 48 h at 37° C., 5% CO2, 95% air, and 100% relative humidity. For adherent cells, the assay is terminated by the addition of cold TCA (trichloroacetic acid). Cells are fixed in situ by the gentle addition of 50 μl of cold 50% (w/v) TCA (final concentration, 10% TCA) and incubated for 60 minutes at 4° C. The supernatant is discarded, and the plates are washed five times with tap water and air dried. Sulforhodamine B (SRB) solution (100 μl) at 0.4% (w/v) in 1% acetic acid is added to each well, and plates are incubated for 10 minutes at room temperature. After staining, unbound dye is removed by washing five times with 1% acetic acid and the plates are air dried. Bound stain is subsequently solubilised with 10 mM trizma base, and the absorbance is read on an automated plate reader at a wavelength of 515 nm. For suspension cells, the methodology is the same except that the assay is terminated by fixing settled cells at the bottom of the wells by gently adding 50 μl of 80% TCA (final concentration, 16% TCA). Using the seven absorbance measurements [time zero, (Tz), control growth, (C), and test growth in the presence of drug at the five concentration levels (Ti)], the percentage growth is calculated at each of the drug concentrations levels. Percentage growth inhibition is calculated as: [(Ti−Tz)/(C−Tz)]×100 for concentrations for which Ti>/=Tz and [(Ti−Tz)/Tz]×100 for concentrations for which Ti<Tz.
(§4) Three dose response parameters are calculated for each experimental agent. Growth inhibition of 50% (GI50) is calculated from [(Ti−Tz)/(C−Tz)]×100=50, which is the drug concentration resulting in a 50% reduction in the net protein increase (as measured by SRB staining) in control cells during the drug incubation. The drug concentration resulting in total growth inhibition (TGI) is calculated from Ti=Tz. The LC50 (concentration of drug resulting in a 50% reduction in the measured protein at the end of the drug treatment as compared to that at the beginning) indicating a net loss of cells following treatment is calculated from [(Ti−Tz)/Tz]×100=−50. Values are calculated for each of these three parameters if the level of activity is reached. However, if the effect is not reached or is exceeded, the value for that parameter is expressed as greater or less than the maximum or minimum concentration tested.

[2] = tested on: HS 578T; experiment: NCI screening panel, HS 578T (Breast Cancer)
Experimental: as §1, §2, §3, §4

[3] = tested on: RPMI-8226; experiment: NCI screening panel, RPMI-8226 (Leukemia)
Experimental: as §1, §2, §3, §4

[4] = tested on: HCT-116; experiment: NCI screening panel, HCT-116 (Colon Cancer)
Experimental: as §1, §2, §3, §4

[5] = tested on: A498; experiment: NCI screening panel, A498 (Renal Cancer)
Experimental: as §1, §2, §3, §4

Compound	Log10GI50 [1]	Log10LC50 [1]	Log10TGI50 [1]	Log10GI50 [2]	Log10LC50 [2]	Log10TGI50 [2]	Log10GI50 [3]	Log10LC50 [3]	Log10TGI50 [3]	Log10GI50 [4]	Log10LC50 [4]	Log10TGI50 [4]	Log10GI50 [5]	Log10LC50 [5]	Log10TGI50 [5]
CC(C)C[C@H](NC(=O)[C@H](COC(F)F)NC(=O)CN1CCOCC1)C(=O)N[C@@H](COC(F)F)C(=O)N[C@@H](CC(C)C)C(=O)[C@@]1(C)CO1 [Example 1, (2S)—N-[(1S)-1-(difluoromethoxymethyl)-2-[[(1S)-3-methyl-1-[(2R)-2-methyloxirane-2-carbonyl]butyl]amino]-2-oxo-ethyl]-2-[[(2S)-3-(difluoromethoxy)-2-[(2-morpholinoacetyl)amino]propanoyl]amino]-4-methyl-pentanamide]	−5.97	>−4.00	>−4.00	−7.72	>−4.00	−7.01	−7.56	>−4.00	−7.05	-8.00	−6.33	−7.34	−7.59	−6.06	−6.93
CC(C)C[C@H](NC(=O)[C@H](COC(F)F)NC(=O)CN1CCOCC1)C(=O)N[C@@H](Cc1ccccc1)C(=O)N[C@@H](CC(C)C)C(=O)[C@@]1(C)CO1 [Example 2, (2S)-N-[(1S)-1-benzyl-2-[[(1S)-3-methyl-1-[(2R)-2-methyloxirane-2-carbonyl]butyl]-amino]-2-oxo-ethyl]-2-[[(2S)-3-(difluoromethoxy)-2-[(2-morpholinoacetyl)amino]propanoyl]amino]-4-methyl-pentanamide]	−6.40	>−4.00	−4.66	−7.71		>−4.00	−7.98	>−4.00	−7.24	<-8.00	−6.97	−7.72	−7.67	−6.23	−7.12
CC(C)C[C@H](NC(=O)[C@H](COC(F)F)NC(=O)CN1CCOCC1)C(=O)N[C@@H](Cc1ccccc1)C(=O)N[C@@H](Cc1ccccc1)C(=O)[C@@]1(C)CO1 [Example 3, (2S)-N-[(1S)-1-benzyl-2-[[(1S)-1-benzyl-2-[(2R)-2-methyloxiran-2-yl]-2-oxo-ethyl]amino]-2-oxo-ethyl]-2-[[(2S)-3-(difluoromethoxy)-2-[(2-morpholinoacetyl)-amino]propanoyl]amino]-4-methyl-pentan-amide]	−6.51	>−4.00	>−4.00	<−8.00	>−4.00	−7.01	<−8.00	>−4.00	−7.48	<−8.00	>−4.00	−7.34	−7.97	−6.34	−7.26
CC(C)C[C@H](NC(=O)[C@H](COC(F)F)NC(=O)CN1CCOCC1)C(=O)N[C@@H](COC(F)F)C(=O)N[C@@H](Cc1ccccc1)C(=O)[C@@]1(C)CO1 [Example 4, (2S)-N-[(1S)-2-[[(1S)-1-benzyl-2-[(2R)-2-methyloxiran-2-yl]-2-oxo-ethyl]amino]-1-(difluoromethoxymethyl)-2-oxo-ethyl]-2-[[(2S)-3-(difluoromethoxy)-2-[(2-mor-pholinoacetyl)amino]propanoyl]amino]-4 methyl-pentanamide]	−5.91	>−4.00	−4.62	−7.71	>−4.00	−7.01	−7.51	>−4.00	−6.54	−7.70	−4.57	−6.98	−7.42	−5.65	−6.61
CC(C)C[C@H](NC(=O)[C@H](COC(F)F)NC(=O)[C@H](COC(F)F)NC(=O)[C@H](CCc1ccccc1)NC(=O)CN1CCOCC1)C(=O)[C@@]1(C)CO1 [Example 7, (2S)-N-[(1S)-1-(difluoromethoxymethyl)-2-[[(1S)-1-(difluoromethoxymethyl)-2-[[(1S)-3-methyl-1-[(2R)-2-methyloxirane-2-carbo-nyl]butyl]amino]-2-oxo-ethyl]amino]-2-oxo-ethyl]-2-[(2-morpholinoacetyl)amino]-4-phenyl-butanamide]	−5.89	>−4.00	>−4.00	−7.70	>−4.00	−6.05	−7.56	>−4.00	−7.04	<−8.00	>−4.00	−6.78	−7.40	−6.06	−6.75
CC(C)C[C@H](NC(=O)[C@H](Cc1ccccc1)NC(=O)[C@H](COC(F)F)NC(=O)[C@H](COC(F)F)NC(=O)CN1CCOCC1)C(=O)[C@@]1(C)CO1 [Example 11, (2S)-2-[[(2S)-3-(difluoromethoxy)-2-[[(2S)-3-(difluoromethoxy)-2-[(2-morpholinoacetyl)-amino]propanoyl]amino]propanoyl]amino]-N-[(1S)-3-methyl-1-[(2R)-2-methyloxirane-2-carbonyl]butyl]-3-phenyl-propanamide]	−6.00	>−4.00	−4.42	−7.70	>−4.00	−6.97	−7.65	>−4.00	−7.02	<−8.00	−4.54	−7.06	−7.64	−6.08	−7.00
CC(C)C[C@H](NC(=O)[C@H](COC(F)F)NC(=O)[C@H](COC(F)F)NC(=O)[C@H](COC(F)F)NC(=O)CN1CCOCC1)C(=O)[C@@]1(C)CO1 [Example 17, (2S)-3-(difluoromethoxy)-N-[(1S)-1-(difluoromethoxymethyl)-2-[[(1S)-1-(difluoro-methoxymethyl)-2-[[(1S)-3-methyl-1-[(2R)-2-methyloxirane-2-carbonyl]butyl]amino]-2-oxo-ethyl]amino]-2-oxo-ethyl]-2-[(2-mor-pholinoacetyl)amino]-propanamide]	−5.28	>−4.00	>−4.00	−7.15	>−4.00	−5.27	−7.14	>−4.00	-6.15	−7.45	−4.50	−6.60	−6.87	−5.44	−6.22
